Results on 1 compound are retold here after patent US20200278355A1, “CONJUGATED PROTEINS AND USES THEREOF” (THE SCRIPPS RESEARCH INSTITUTE, priority 2017, published 2020).

The target of the test is T1, HA-NR0B1-WT binding to FLAG-SNW1 (Homo sapiens, UniProt P51843).
T1 construct: expressed in transfected cells; host or cells: HEK293T (pRK5-based plasmids)
The test is described as follows: Modified in vitro binding assay: HA-NR0B1-WT from compound-treated HEK293T cells binding to FLAG-SNW1. It is filed as cell-based. The settings on record: HEK293T cells expressing HA-NR0B1-WT treated with compound, lysate binding to FLAG-SNW1. Here is the method: FIG. 5A-FIG. 5G show covalent ligand targeting C274 disrupts NR0B1 protein complexes. […] Percentage of NR0B1 bound to SNW1 was normalized to vehicle (DMSO). A hit compound BPK-26 is marked in red. […] HEK293T cells expressing the indicated proteins were treated with BPK-29 or vehicle (3 h) prior to treatment with BPK-29yne (30 min). Immunoprecipiated proteins were analyzed by in-gel fluorescence-scanning and immunoblotting. […] HEK293T cells expressing HA-NR0B1-WT or HA-NR0B1-C274V proteins were treated with DMSO or BPK-29, after which lysates were generated and evaluated for binding to FLAG-SNW1, as shown in (B).
FIG. 11A-FIG. 11F illustrate a covalent ligand targeting Cys274 disrupts NR0B1 protein complexes. […] See also FIG. 5C. […] Top: Structures of screening hit BPK-28 and synthesized derivatives. […] FLAG-immunoprecipitates were prepared from each lysate and subjected to proteolytic digestion, whereupon tryptic peptides harboring C274 were analyzed by LC-MS/MS. […] Immunoprecipitates were analyzed by in-gel fluorescence-scanning to assess BPK-29yne labeling or by immunoblot for FLAG-NR0B1. […] In a modified in vitro binding assay shown in FIG. 5B, HEK293T cells expressing HA-NR0B1-WT or an HA-NR0B1-C274V mutant were treated with DMSO or BPK-26 (20 μM, 3 h), after which lysates were and interaction with FLAG-SNW1 assessed. […]

T1 sequence (P51843 whole entry): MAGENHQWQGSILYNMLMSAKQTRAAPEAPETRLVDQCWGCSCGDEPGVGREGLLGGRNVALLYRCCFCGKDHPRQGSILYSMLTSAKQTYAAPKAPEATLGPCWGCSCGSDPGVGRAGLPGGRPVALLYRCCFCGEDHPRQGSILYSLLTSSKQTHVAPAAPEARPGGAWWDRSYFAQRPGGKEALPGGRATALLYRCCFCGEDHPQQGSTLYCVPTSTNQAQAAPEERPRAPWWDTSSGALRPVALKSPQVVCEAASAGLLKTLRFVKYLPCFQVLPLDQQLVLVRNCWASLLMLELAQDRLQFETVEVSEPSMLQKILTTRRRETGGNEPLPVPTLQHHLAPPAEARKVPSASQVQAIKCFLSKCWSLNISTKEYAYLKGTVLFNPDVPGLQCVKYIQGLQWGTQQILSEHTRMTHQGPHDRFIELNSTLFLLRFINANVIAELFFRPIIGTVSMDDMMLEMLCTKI

In the case of `O=C(c1ccc(N2CCOCC2)cc1)N1CCCC(N(Cc2ccccc2)C(=O)CCl)CC1` (stereo not shown) [BPK-29, N-benzyl-2-chloro-N-(1-(4-morpholinobenzoyl)azepan-4-yl)acetamide], the “disruption of NR0B1-WT protein interactions (binding to FLAG-SNW1)” value was “disrupts protein interactions for NR0B1-WT”.
